# According to ChEMBL document CHEMBL1137749, “Antifungal unsaturated cyclic Mannich ketones and amino alcohols: study of mechanism of action” (2009):
# Calls of active or inactive are those of the source. The calls are words filed in the database; no cut-off is given here.
# Experiments:
# [1] = tested on: Candida albicans; experiment: Antifungal activity against Candida albicans ATCC 90028 assessed as inhibition of fungal ergosterol synthesis at 0.5 times MIC after 16 hrs by UV spectrophotometry; type: functional, organism-based
# [2] = tested on: Candida parapsilosis; experiment: Antifungal activity against Candida parapsilosis ATCC 22019 after 48 hrs by macro tube dilution method; type: functional; details: Lodderomyces parapsilosis, ATCC 22019, 48 h
# [3] = tested on: Candida albicans; experiment: Antifungal activity against Candida albicans ATCC 90028 after 48 hrs by macro tube dilution method; type: functional; details: ATCC 90028, 48 h
# [4] = tested on: Aspergillus sp.; experiment: Antifungal activity against Aspergillus sp. after 48 hrs by macro tube dilution method; type: functional
# [5] = tested on: Nakaseomyces glabratus; experiment: Antifungal activity against Candida glabrata ATCC 3916 after 48 hrs by macro tube dilution method; type: functional; details: ATCC 3916, 48 h
# [6] = tested on: Saccharomyces cerevisiae; experiment: Antifungal activity against Saccharomyces cerevisiae after 48 hrs by macro tube dilution method; type: functional
# [7] = tested on: Pichia kudriavzevii; experiment: Antifungal activity against Candida krusei ATCC 30068 after 48 hrs by macro tube dilution method; type: functional; details: ATCC 30068, 48 h
# [8] = tested on: Candida albicans; experiment: Inhibition of chitin synthase in Candida albicans ATCC 90028 at 1.5 times MIC by liquid scintillation analyzer relative to nikkomycin
# [9] = tested on: Candida albicans; experiment: Antifungal activity against Candida albicans ATCC 90028 assessed as changes in fungal protein expression at 2 times MIC after 1 hr by electrophoresis-based microchip technology; type: functional, organism-based
# [10] = tested on: Candida albicans; experiment: Antifungal activity against Candida albicans ATCC 90028 assessed as changes in fungal protein expression at 0.5 time MIC after 1 hr by electrophoresis-based microchip technology; type: functional, organism-based
Structure (SMILES),MIC [2] [µg/mL],MIC [3] [µg/mL],MIC [4] [µg/mL],MIC [5] [µg/mL],MIC [6] [µg/mL],MIC [7] [µg/mL],Activity [8],inhibition [8],Activity [1],Activity [9],Activity [10]
O[C@H]1/C(=C/c2ccccc2)CCCCC[C@H]1CN1CCCCC1 (relative stereo),50,100,50,50,6.25,6.25,inactive,,,,
O[C@H]1/C(=C/c2ccccc2)CCC[C@H]1CN1CCOCC1 (relative stereo),> 200,> 200,> 200,> 200,> 200,> 200,,,,,
O[C@H]1/C(=C/c2ccccc2)CCC[C@@H]1CN1CCOCC1 (relative stereo),> 200,200,> 200,> 200,200,200,,,,,
O[C@H]1/C(=C/c2ccccc2)CCCC[C@H]1CN1CCCCC1 (relative stereo),> 200,> 200,200,200,50,200,,,,,
O[C@@H]1/C(=C/c2ccccc2)CC[C@H]1CN1CCCCC1 (relative stereo),> 200,100,> 200,> 200,50,50,,,,,
O[C@H]1/C(=C/c2ccccc2)CCCC[C@H]1CN1CCOCC1 (relative stereo),> 200,> 200,> 200,> 200,> 200,> 200,,,,,
O[C@H]1/C(=C/c2ccccc2)CCCCC[C@H]1CN1CCOCC1 (relative stereo),200,200,> 200,200,100,200,Active,,,,
O=C1/C(=C/c2ccccc2)CCCCCC1CN1CCOCC1 (stereo unspecified),> 200,> 200,> 200,> 200,200,> 200,,Active,,,

# Compounds with a lower MIC [2], results first:
MIC [2] [µg/mL],MIC [3] [µg/mL],MIC [4] [µg/mL],MIC [5] [µg/mL],MIC [6] [µg/mL],MIC [7] [µg/mL],Activity [8],inhibition [8],Structure (SMILES),Activity [1],Activity [9],Activity [10]
25,100,> 200,> 200,3.12,200,,,Cc1ccc(/C=C2\CCCC(CN3CCOCC3)C2=O)cc1 (stereo unspecified),,,
12.5,25,100,25,12.5,25,,,O=C1/C(=C/c2ccccc2)CCCC1CN1CCCC1 (stereo unspecified),,,
12.5,25,> 200,> 200,12.5,25,,,COc1ccc(/C=C2\CCCC(CN3CCOCC3)C2=O)cc1 (stereo unspecified),,,
6.25,1.56,> 200,3.12,3.12,6.25,,,O=C1/C(=C/c2ccc3c(c2)OCO3)CCC1CN1CCOCC1 (stereo unspecified),inactive,,
6.25,6.25,100,12.5,1.56,12.5,,inactive,O=C1/C(=C/c2ccccc2)CCC1CN1CCNCC1 (stereo unspecified),,inactive,inactive
6.25,6.25,25,3.12,1.56,12.5,,,Cc1ccc(/C=C2\CCC(CN3CCOCC3)C2=O)cc1 (stereo unspecified),,,
